Laboratory results as given in ChEMBL document CHEMBL4808162, “Constraining the Side Chain of C-Terminal Amino Acids in Apelin-13 Greatly Increases Affinity, Modulates Signaling, and Improves the Pharmacokinetic Profile” (J Med Chem, 2021).

Experiments:
[1] = target: T1, Apelin receptor (Homo sapiens, UniProt P35414); assay: Agonist activity at human APJ receptor expressed in HEK293 cells co-expressing Rlucll-beta-arrestin2 assessed as induction of beta-arrestin2 recruitment to receptor incubated for 30 mins by BRET assay; type: functional, cell-based
T1 sequence (P35414 whole entry): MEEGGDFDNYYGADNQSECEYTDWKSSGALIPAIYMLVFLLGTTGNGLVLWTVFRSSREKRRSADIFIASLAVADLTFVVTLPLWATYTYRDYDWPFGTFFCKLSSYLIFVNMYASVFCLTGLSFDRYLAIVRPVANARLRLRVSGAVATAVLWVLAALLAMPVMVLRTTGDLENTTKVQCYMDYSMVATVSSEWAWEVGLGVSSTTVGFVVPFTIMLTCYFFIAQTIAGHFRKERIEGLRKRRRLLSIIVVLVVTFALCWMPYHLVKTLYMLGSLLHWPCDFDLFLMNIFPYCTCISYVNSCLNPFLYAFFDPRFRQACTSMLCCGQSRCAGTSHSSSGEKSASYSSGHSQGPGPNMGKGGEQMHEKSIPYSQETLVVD

[2] = target: T1, Apelin receptor; assay: Agonist activity at human APJ receptor expressed in HEK293T cells co-expressing PDZ-Rho-Gef-RLucll and rGFP-CAAX assessed as induction of recruitment of Galpha12 to cell membrane using coelenterazine luciferase substrate incubated for 5 mins by BRET assay; type: functional, cell-based, HEK293
[3] = target: T1, Apelin receptor; assay: Displacement of [125I] [NIe75,Tyr77]Pyr-apelin-13 from YFP-tagged human APJ receptor expressed in HEK293 cells incubated for 1 hr by gamma counting analysis; type: cell-based
[4] = target: T1, Apelin receptor; assay: Agonist activity at human APJ receptor expressed in HEK293T cells co-expressing Galphai1 RlucII assessed as dissociation of Galphai1 from Gbetta/gamma subunit measured using coelenterazine luciferase substrate incubated for 5 mins by BRET assay; type: functional, cell-based, HEK293

SMILES | EC50 [1] [nM] | EC50 [2] [nM] | Ki [3] [nM] | EC50 [4] [nM] | EC50 ([1]; hek293) [nM] | EC50 ([2]; hek293) [nM] | Ki ([3]; hek293) [nM] | EC50 ([4]; hek293) [nM]
CCCC[C@H](NC(=O)[C@@H]1CCCN1C(=O)CNC(=O)[C@H](CCCCN)NC(=O)[C@H](Cc1cnc[nH]1)NC(=O)[C@H](CO)NC(=O)[C@H](CC(C)C)NC(=O)[C@H](CCCNC(=N)N)NC(=O)[C@@H]1CCCN1C(=O)[C@H](CCCNC(=N)N)NC(=O)[C@@H]1CCC(=O)N1)C(=O)N1CCC[C@H]1C(=O)N[C@H](C(=O)O)C(C)(C)c1ccccc1 | 69 | 67 | 0.36 | 2.4 |  |  |  | 
CCCC[C@H](NC(=O)[C@@H]1CCCN1C(=O)CNC(=O)[C@H](CCCCN)NC(=O)[C@H](Cc1cnc[nH]1)NC(=O)[C@H](CO)NC(=O)[C@H](CC(C)C)NC(=O)[C@H](CCCNC(=N)N)NC(=O)[C@@H]1CCCN1C(=O)[C@H](CCCNC(=N)N)NC(=O)[C@@H]1CCC(=O)N1)C(=O)N1CCC[C@H]1C(=O)N[C@H](C(=O)O)C(C)c1ccccc1 (some centres undefined) | 40 | 108 | 0.37 | 1 |  |  |  | 
CCCC[C@H](NC(=O)[C@@H]1CCCN1C(=O)CNC(=O)[C@H](CCCCN)NC(=O)[C@H](Cc1cnc[nH]1)NC(=O)[C@H](CO)NC(=O)[C@H](CC(C)C)NC(=O)[C@H](CCCNC(=N)N)NC(=O)[C@@H]1CCCN1C(=O)[C@H](CCCNC(=N)N)NC(=O)[C@@H]1CCC(=O)N1)C(=O)N[C@H](Cc1ccc2ccccc2c1)C(=O)N1Cc2ccccc2C[C@@H]1C(=O)O | 94 |  | 0.37 | 4.3 |  |  |  | 
CCCC[C@H](NC(=O)[C@@H]1CCCN1C(=O)CNC(=O)[C@H](CCCCN)NC(=O)[C@H](Cc1cnc[nH]1)NC(=O)[C@H](CO)NC(=O)[C@H](CC(C)C)NC(=O)[C@H](CCCNC(=N)N)NC(=O)[C@@H]1CCCN1C(=O)[C@H](CCCNC(=N)N)NC(=O)[C@@H]1CCC(=O)N1)C(=O)N1CCC[C@H]1C(=O)N[C@H](Cc1cccc(-c2ccccc2)c1)C(=O)O |  |  |  |  | 47 | 24 | 0.31 | 1.4
CCCC[C@H](NC(=O)[C@@H]1CCCN1C(=O)CNC(=O)[C@H](CCCCN)NC(=O)[C@H](Cc1cnc[nH]1)NC(=O)[C@H](CO)NC(=O)[C@H](CC(C)C)NC(=O)[C@H](CCCNC(=N)N)NC(=O)[C@@H]1CCCN1C(=O)[C@H](CCCNC(=N)N)NC(=O)[C@@H]1CCC(=O)N1)C(=O)N1CCC[C@H]1C(=O)N[C@H]1Cc2c([nH]c3ccccc23)CN(CC(=O)O)C1=O | 311 | 481 | 4.3 | 6.8 |  |  |  | 
CCCC[C@H](NC(=O)[C@@H]1CCCN1C(=O)CNC(=O)[C@H](CCCCN)NC(=O)[C@H](Cc1cnc[nH]1)NC(=O)[C@H](CO)NC(=O)[C@H](CC(C)C)NC(=O)[C@H](CCCNC(=N)N)NC(=O)[C@@H]1CCCN1C(=O)[C@H](CCCNC(=N)N)NC(=O)[C@@H]1CCC(=O)N1)C(=O)N1CCC[C@H]1C(=O)N[C@H]1Cc2c(ccc3ccccc23)CN(CC(=O)O)C1=O | 221 | 74 | 1.7 | 6.4 |  |  |  | 
CCCC[C@H](NC(=O)[C@@H]1CCCN1C(=O)CNC(=O)[C@H](CCCCN)NC(=O)[C@H](Cc1cnc[nH]1)NC(=O)[C@H](CO)NC(=O)[C@H](CC(C)C)NC(=O)[C@H](CCCNC(=N)N)NC(=O)[C@@H]1CCCN1C(=O)[C@H](CCCNC(=N)N)NC(=O)[C@@H]1CCC(=O)N1)C(=O)N1CCC[C@H]1C(=O)N1C[C@@H](OCc2ccccc2)C[C@@H]1C(=O)O | 192 | 63 | 6.1 | 6.4 |  |  |  | 
CCCC[C@H](NC(=O)[C@@H]1CCCN1C(=O)CNC(=O)[C@H](CCCCN)NC(=O)[C@H](Cc1cnc[nH]1)NC(=O)[C@H](CO)NC(=O)[C@H](CC(C)C)NC(=O)[C@H](CCCNC(=N)N)NC(=O)[C@@H]1CCCN1C(=O)[C@H](CCCNC(=N)N)NC(=O)[C@@H]1CCC(=O)N1)C(=O)N1CCC[C@H]1C(=O)N1Cc2cc(OCc3ccccc3)ccc2C[C@@H]1C(=O)O | 45 | 22 | 0.19 | 3.4 |  |  |  | 
CCCC[C@H](NC(=O)[C@@H]1CCCN1C(=O)CNC(=O)[C@H](CCCCN)NC(=O)[C@H](Cc1cnc[nH]1)NC(=O)[C@H](CO)NC(=O)[C@H](CC(C)C)NC(=O)[C@H](CCCNC(=N)N)NC(=O)[C@@H]1CCCN1C(=O)[C@H](CCCNC(=N)N)NC(=O)[C@@H]1CCC(=O)N1)C(=O)N1CCC[C@H]1C(=O)N[C@H](Cc1ccc(OCc2ccccc2)c(C2CCCC2)c1)C(=O)O | 69 | 53 | 0.41 | 5.7 |  |  |  | 
CCCC[C@H](NC(=O)[C@@H]1CCCN1C(=O)CNC(=O)[C@H](CCCCN)NC(=O)[C@H](Cc1cnc[nH]1)NC(=O)[C@H](CO)NC(=O)[C@H](CC(C)C)NC(=O)[C@H](CCCNC(=N)N)NC(=O)[C@@H]1CCCN1C(=O)[C@H](CCCNC(=N)N)NC(=O)[C@@H]1CCC(=O)N1)C(=O)N1CCC[C@H]1C(=O)N[C@@](C)(Cc1ccc(OCc2ccccc2)cc1)C(=O)O | 571 | 11 | 1 | 19 |  |  |  | 
CCCC[C@H](NC(=O)[C@@H]1CCCN1C(=O)CNC(=O)[C@H](CCCCN)NC(=O)[C@H](Cc1cnc[nH]1)NC(=O)[C@H](CO)NC(=O)[C@H](CC(C)C)NC(=O)[C@H](CCCNC(=N)N)NC(=O)[C@@H]1CCCN1C(=O)[C@H](CCCNC(=N)N)NC(=O)[C@@H]1CCC(=O)N1)C(=O)N1CCC[C@H]1C(=O)N[C@H](Cc1ccc(-c2ccccc2)cc1)C(=O)O |  |  |  |  | 64 | 21 | 0.35 | 2.1
CCCC[C@H](NC(=O)[C@@H]1CCCN1C(=O)CNC(=O)[C@H](CCCCN)NC(=O)[C@H](Cc1cnc[nH]1)NC(=O)[C@H](CO)NC(=O)[C@H](CC(C)C)NC(=O)[C@H](CCCNC(=N)N)NC(=O)[C@@H]1CCCN1C(=O)[C@H](CCCNC(=N)N)NC(=O)[C@@H]1CCC(=O)N1)C(=O)N1CC[C@H](c2ccccc2)[C@@H]1C(=O)N[C@@H](Cc1ccccc1)C(=O)O | 454 | 48 | 4.2 | 17 |  |  |  | 
CCCC[C@H](NC(=O)[C@@H]1CCCN1C(=O)CNC(=O)[C@H](CCCCN)NC(=O)[C@H](Cc1cnc[nH]1)NC(=O)[C@H](CO)NC(=O)[C@H](CC(C)C)NC(=O)[C@H](CCCNC(=N)N)NC(=O)[C@@H]1CCCN1C(=O)[C@H](CCCNC(=N)N)NC(=O)[C@@H]1CCC(=O)N1)C(=O)N1CCC[C@H]1C(=O)N[C@H](Cc1ccc(OCc2ccccc2)cc1)C(=O)O |  |  |  |  | 14 | 11 | 0.02 | 0.5
CCCC[C@H](NC(=O)[C@@H]1CCCN1C(=O)CNC(=O)[C@H](CCCCN)NC(=O)[C@H](Cc1cnc[nH]1)NC(=O)[C@H](CO)NC(=O)[C@H](CC(C)C)NC(=O)[C@H](CCCNC(=N)N)NC(=O)[C@@H]1CCCN1C(=O)[C@H](CCCNC(=N)N)NC(=O)[C@@H]1CCC(=O)N1)C(=O)N1CCC[C@H]1C(=O)N[C@H](Cc1cc(C2CCCC2)c(O)c(C2CCCC2)c1)C(=O)O | 361 | 111 | 1.6 | 16 |  |  |  | 
CCCC[C@H](NC(=O)[C@@H]1CCCN1C(=O)CNC(=O)[C@H](CCCCN)NC(=O)[C@H](Cc1cnc[nH]1)NC(=O)[C@H](CO)NC(=O)[C@H](CC(C)C)NC(=O)[C@H](CCCNC(=N)N)NC(=O)[C@@H]1CCCN1C(=O)[C@H](CCCNC(=N)N)NC(=O)[C@@H]1CCC(=O)N1)C(=O)N1CCC[C@H]1C(=O)N[C@H](Cc1cccc(OCc2ccccc2)c1)C(=O)O |  |  |  |  | 106 | 45 | 0.46 | 3.8
